# Test results: patent US20070104644A1, “Inhibitor imaging agents” (priority 2003, published 2007)
# Experiments:
# MMP-9 = MMP-9 (Homo sapiens, UniProt P14780); experiment: MMP-9 colorimetric assay kit (Biomol AK-410); type: biochemical
# Protocol: (§1) Compounds were screened using the following commercially available Biomol assay kits: • MMP-1 colorimetric assay kit—Catalogue number AK-404, • MMP-2 colorimetric assay kit—Catalogue number AK-408, • MMP-8 calorimetric assay kit—Catalogue number AK-414, • MMP-9 calorimetric assay kit—Catalogue number AK-410, • MMP-12 colorimetric assay kit—Catalogue number AK-402, Which are available from Affiniti Research Products Ltd. (Palatine House, Matford Court, Exeter, EX2 8NL, UK).
# (§2) Inhibitors were provided in powdered form, and stored at 4° C. For each inhibitor a 1 mM stock solution in DMSO was prepared, dispensed into 20 μl aliquots and these aliquots stored at −20° C. The stock solution was diluted to give 8 inhibitor concentrations (recommended: 50 μM, 5 μM, 500 nM, 50 nM, 5 nM, 500 pM, 50 pM and 5 pM). Dilutions were made in the kit assay buffer. A five-fold dilution of the inhibitor stocks is made on addition to the assay wells, therefore final concentration range was from 10 μM to 1 pM.
# (§3) Details are provided with the commercial kit, but can be summarised as follows: • Prepare test compound dilutions as above, • Add assay buffer to plate, • Add test compounds to plate • Prepare standard kit inhibitor NNGH (see kit for dilution factor) • Add NNGH to control inhibitor wells • Prepare MMP enzyme (see kit for dilution factor) • Add MMP to plate • Incubate plate at 37° C. for ˜15 min • Prepare thiopeptolide substrate (see kit for dilution factor) • Add substrate to plate • Count every 2 min for 1 hr, 37° C., 414 nm on a Labsystems iEMS plate reader (for MMP-1 count every 30 seconds for 20 minutes).
# MMP-2 = target: T1, MMP-2 (Homo sapiens, UniProt P08253); experiment: MMP-2 colorimetric assay kit (Biomol AK-408); type: biochemical
# T1 sequence (P08253 110-660): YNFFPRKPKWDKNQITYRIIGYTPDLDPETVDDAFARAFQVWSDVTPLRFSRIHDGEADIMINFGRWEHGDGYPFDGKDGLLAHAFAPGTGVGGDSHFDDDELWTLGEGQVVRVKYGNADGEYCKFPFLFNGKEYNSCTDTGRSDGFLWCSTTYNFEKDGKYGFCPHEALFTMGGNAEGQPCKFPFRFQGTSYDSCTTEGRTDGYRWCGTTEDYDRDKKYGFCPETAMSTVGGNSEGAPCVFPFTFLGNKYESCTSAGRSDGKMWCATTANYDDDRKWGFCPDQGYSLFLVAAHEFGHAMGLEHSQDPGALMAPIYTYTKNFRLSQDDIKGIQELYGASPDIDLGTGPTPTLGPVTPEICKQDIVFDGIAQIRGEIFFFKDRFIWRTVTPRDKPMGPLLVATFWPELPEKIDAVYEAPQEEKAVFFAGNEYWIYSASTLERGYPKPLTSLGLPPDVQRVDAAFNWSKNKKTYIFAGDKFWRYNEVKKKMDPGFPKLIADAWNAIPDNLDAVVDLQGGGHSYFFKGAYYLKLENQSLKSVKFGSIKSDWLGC
# Protocol: as §1, §2, §3
# [1] = test system: ApoE −/− mice, carotid artery; experiment: Biodistribution in ApoE ligation model of atherosclerosis (ligated and sham); type: in vivo
# Description: ApoE −/− mice are transgenic knock-out mice, which lack the ApoE gene, and are therefore unable to regulate their plasma cholesterol levels. As a consequence ApoE mice develop atherosclerotic lesions, a process which is accelerated with feeding of high fat diet. Further acceleration of lesion development can be achieved by ligating the carotid artery, resulting in advanced lesion formation within 4 weeks of surgery and high fat diet feeding.
# Two controls have been used for these experiments: (1) ApoE sham animals in which the mice undergo the same surgical intervention but the sture is only passed beneath the carotid and then removed and, (2) C57BL/6 ligtaed animals which undergo the same surgical ligation and high fat feeding as the ApoE ligated mice. Literature reports have stated that these animals do have some level of tissue remodelling, but with lower active MMP levels [Ivan et al, Circulation, 105, 2686-2691 (2002)].
# [2] = test system: Lewis lung carcinoma (LLC) tumour; experiment: Biodistribution in LLC tumour model in vivo; design: species or system C57BL/6 mice
# Protocol: 1×10^6 Lewis lung carcinoma (LLC) cells are injected subcutaneously into right inner thigh of C57BL/6 mice. Tumours were allowed to grow for 15 days prior to biodistribution being carried out.
# Biodistribution studies were performed in the LLC tumour model.
# Biodistribution was performed in the LLC tumour model of Example 23 with Compounds 46B and 48B.
# MMP-8 = MMP-8 (Homo sapiens, UniProt P22894); experiment: MMP-8 colorimetric assay kit (Biomol AK-414); type: biochemical
# MMP-8, sequence (P22894 101-467): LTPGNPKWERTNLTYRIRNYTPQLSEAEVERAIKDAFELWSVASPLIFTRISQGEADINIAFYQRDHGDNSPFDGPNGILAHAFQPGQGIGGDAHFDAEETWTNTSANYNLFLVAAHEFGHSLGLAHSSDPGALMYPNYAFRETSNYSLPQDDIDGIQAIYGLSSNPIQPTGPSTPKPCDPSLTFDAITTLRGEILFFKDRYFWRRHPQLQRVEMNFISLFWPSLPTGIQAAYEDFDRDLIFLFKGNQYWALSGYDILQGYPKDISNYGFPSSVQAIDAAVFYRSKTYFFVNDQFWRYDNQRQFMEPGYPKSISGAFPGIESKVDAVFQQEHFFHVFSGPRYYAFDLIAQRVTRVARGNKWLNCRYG
# Protocol: as §1, §2, §3
# MMP-1 = target: T2, MMP-1 (Homo sapiens, UniProt P03956); experiment: MMP-1 colorimetric assay kit (Biomol AK-404); type: biochemical
# T2 sequence (P03956 100-469): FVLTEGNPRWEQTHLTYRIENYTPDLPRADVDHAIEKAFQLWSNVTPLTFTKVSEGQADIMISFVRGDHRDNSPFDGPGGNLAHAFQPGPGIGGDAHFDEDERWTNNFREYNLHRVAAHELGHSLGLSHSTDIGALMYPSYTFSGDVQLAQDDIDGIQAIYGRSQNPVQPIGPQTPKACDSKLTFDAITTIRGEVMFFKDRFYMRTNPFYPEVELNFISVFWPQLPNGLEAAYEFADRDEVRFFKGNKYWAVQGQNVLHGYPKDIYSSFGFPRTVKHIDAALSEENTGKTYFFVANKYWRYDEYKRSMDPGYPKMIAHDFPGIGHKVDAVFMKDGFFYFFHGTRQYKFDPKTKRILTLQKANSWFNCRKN
# Protocol: as §1, §2, §3
# [3] = ApoE Ligated, 5 min post injection
# [4] = ApoE Ligated, 60 min post injection
# [5] = ApoE Sham, 60 min post injection
# MMP-9, sequence (P14780 94-707): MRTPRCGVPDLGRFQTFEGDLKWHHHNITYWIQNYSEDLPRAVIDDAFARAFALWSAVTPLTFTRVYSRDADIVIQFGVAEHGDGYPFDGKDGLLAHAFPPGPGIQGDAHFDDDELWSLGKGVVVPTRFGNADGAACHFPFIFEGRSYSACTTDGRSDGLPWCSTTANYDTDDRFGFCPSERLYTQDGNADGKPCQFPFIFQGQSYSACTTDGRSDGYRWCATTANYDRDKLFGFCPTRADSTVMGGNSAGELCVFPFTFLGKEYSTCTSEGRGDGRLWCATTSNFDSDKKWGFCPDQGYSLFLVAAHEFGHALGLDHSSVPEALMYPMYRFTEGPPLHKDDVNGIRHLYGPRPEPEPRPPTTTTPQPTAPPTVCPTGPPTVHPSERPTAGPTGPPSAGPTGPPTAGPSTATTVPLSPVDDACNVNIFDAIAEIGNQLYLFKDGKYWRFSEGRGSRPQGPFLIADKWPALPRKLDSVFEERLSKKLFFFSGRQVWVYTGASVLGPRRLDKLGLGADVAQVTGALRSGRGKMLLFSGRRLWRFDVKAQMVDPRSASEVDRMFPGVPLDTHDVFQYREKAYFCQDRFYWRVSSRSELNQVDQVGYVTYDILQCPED
SMILES,Ki (MMP-9) [nM],"% ID/G Carotid, mean [1, 3] [% ID/G]","Carotid/Blood, mean [1, 3]","Carotid/Heart, mean [1, 3]","Carotid/Lung, mean [1, 3]","% ID/G Carotid, mean [1, 4] [% ID/G]","Carotid/Blood, mean [1, 4]","Carotid/Heart, mean [1, 4]","Carotid/Lung, mean [1, 4]","% ID Urinary (urinary excretion), mean ([2]; 5 min post injection) [% ID]","% ID/g Tumour, mean ([2]; 5 min post injection) [% ID/g]","Tumour/Blood, mean ([2]; 5 min post injection)","Tumour/Heart, mean ([2]; 5 min post injection)","Tumour/Lung, mean ([2]; 5 min post injection)","Tumour/Muscle, mean ([2]; 5 min post injection)","% ID Urinary (urinary excretion), mean ([2]; 30 min post injection) [% ID]","% ID/g Tumour, mean ([2]; 30 min post injection) [% ID/g]","Tumour/Blood, mean ([2]; 30 min post injection)","Tumour/Heart, mean ([2]; 30 min post injection)","Tumour/Lung, mean ([2]; 30 min post injection)",other results
NC(=O)[C@H](Cc1ccc(O)c(I)c1)NC(=O)CCOCCOCCOCCOCCOCCOCCOCCOCCOCCOCCOCCNC(=O)CCN(C1(C(=O)NO)CCCC1)S(=O)(=O)c1ccc(Oc2ccc(F)cc2)cc1 [Compound 44],0.076,,,,,,,,,,,,,,,,,,,,Ki (MMP-2): 0.25 nM
NC(=O)[C@H](CCCCNC(=O)CON=Cc1ccc([18F])cc1)NC(=O)CCN(C1(C(=O)NO)CCCC1)S(=O)(=O)c1ccc(Oc2ccc(F)cc2)cc1 [Compound 46B],,0.88,0.42,0.49,0.35,0.44,0.61,1.11,0.53,6.60,0.42,0.18,0.37,0.21,1.16,12.00,0.53,0.47,1.15,0.55,"Tumour/Muscle, mean ([2]; 30 min post injection): 2.06; % ID Urinary (urinary excretion), mean ([2]; 60 min post injection): 15.02 % ID; % ID/g Tumour, mean ([2]; 60 min post injection): 0.32 % ID/g; Tumour/Blood, mean ([2]; 60 min post injection): 0.73; Tumour/Heart, mean ([2]; 60 min post injection): 1.54; Tumour/Lung, mean ([2]; 60 min post injection): 0.60; Tumour/Muscle, mean ([2]; 60 min post injection): 2.02; % ID Urinary (urinary excretion), mean ([2]; 120 min post injection): 19.68 % ID; % ID/g Tumour, mean ([2]; 120 min post injection): 0.31 % ID/g; Tumour/Blood, mean ([2]; 120 min post injection): 0.73; Tumour/Heart, mean ([2]; 120 min post injection): 1.33; Tumour/Lung, mean ([2]; 120 min post injection): 0.80; Tumour/Muscle, mean ([2]; 120 min post injection): 1.81"
NC(=O)[C@H](CCCCNC(=O)CON=Cc1ccc([18F])cc1)NC(=O)CCOCCOCCOCCOCCOCCOCCOCCOCCOCCOCCOCCNC(=O)CCOCCOCCOCCOCCOCCOCCOCCOCCOCCOCCOCCNC(=O)CCN(C1(C(=O)NO)CCCC1)S(=O)(=O)c1ccc(Oc2ccc(F)cc2)cc1 [Compound 48B],,12.01,0.40,1.27,0.75,10.34,0.96,2.71,1.42,0.24,2.53,0.11,0.40,0.26,1.55,15.29,2.33,0.24,0.84,0.47,"% ID/G Carotid, mean [1, 5]: 2.37 % ID/G; Carotid/Blood, mean [1, 5]: 0.2; Carotid/Heart, mean [1, 5]: 0.81; Carotid/Lung, mean [1, 5]: 0.25; Tumour/Muscle, mean ([2]; 30 min post injection): 2.92; % ID Urinary (urinary excretion), mean ([2]; 60 min post injection): 56.89 % ID; % ID/g Tumour, mean ([2]; 60 min post injection): 1.81 % ID/g; Tumour/Blood, mean ([2]; 60 min post injection): 0.51; Tumour/Heart, mean ([2]; 60 min post injection): 1.69; Tumour/Lung, mean ([2]; 60 min post injection): 0.95; Tumour/Muscle, mean ([2]; 60 min post injection): 4.40; % ID Urinary (urinary excretion), mean ([2]; 120 min post injection): 59.33 % ID; % ID/g Tumour, mean ([2]; 120 min post injection): 1.62 % ID/g; Tumour/Blood, mean ([2]; 120 min post injection): 0.41; Tumour/Heart, mean ([2]; 120 min post injection): 1.52; Tumour/Lung, mean ([2]; 120 min post injection): 0.77; Tumour/Muscle, mean ([2]; 120 min post injection): 3.55"
NC(=O)[C@H](CCCCNC(=O)CON=Cc1ccc(F)cc1)NC(=O)CCOCCOCCOCCOCCOCCOCCOCCOCCOCCOCCOCCNC(=O)CCOCCOCCOCCOCCOCCOCCOCCOCCOCCOCCOCCNC(=O)CCN(C1(C(=O)NO)CCCC1)S(=O)(=O)c1ccc(Oc2ccc(F)cc2)cc1 [Compound 48],0.2,,,,,,,,,,,,,,,,,,,,Ki (MMP-8): 0.5 nM; Ki (MMP-1): 33.3 nM
